The target of the assay is T1, Chk1 (Homo sapiens, UniProt O14757).
T1 construct: purchased Upstate Biotechnology
T1 sequence (O14757 1-476): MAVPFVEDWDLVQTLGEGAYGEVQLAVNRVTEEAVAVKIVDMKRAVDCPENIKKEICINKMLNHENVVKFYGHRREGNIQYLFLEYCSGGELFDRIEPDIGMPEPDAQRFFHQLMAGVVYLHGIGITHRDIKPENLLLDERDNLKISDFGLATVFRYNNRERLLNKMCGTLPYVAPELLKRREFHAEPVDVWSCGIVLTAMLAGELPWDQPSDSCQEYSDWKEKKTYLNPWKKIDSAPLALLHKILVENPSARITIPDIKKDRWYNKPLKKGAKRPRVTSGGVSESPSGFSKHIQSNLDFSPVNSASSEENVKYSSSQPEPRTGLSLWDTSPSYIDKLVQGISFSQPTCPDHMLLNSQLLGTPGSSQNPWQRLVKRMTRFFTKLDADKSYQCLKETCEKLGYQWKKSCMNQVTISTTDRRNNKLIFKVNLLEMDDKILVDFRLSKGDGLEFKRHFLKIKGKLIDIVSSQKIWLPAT
The experiment in a line: Chk1 kinase assay: incorporation of γ-33P ATP into immobilized myelin basic protein. The following applies: Table 11, Chk1 only; class symbols A-D; read-out: Chk1 IC50. The class given is biochemical. In outline: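 Immobilized-MBP radiometric kinase assay, room temperature for 1 h; ATP 10 μM (Chk1, 10 nM enzyme) or 30 μM (Chk2, 20 nM enzyme) with 33P tracer. Values are IC50s, with Ki derived from them.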

The IC50 is the midpoint of a concentration-inhibition curve.

Regarding `Nc1ncc(-c2cccc(OCCN3CCN(C(=O)OCc4ccccc4)CC3)c2)nc1C(=O)N[C@H]1CCCNC1` [Example 965, phenylmethyl 4-(2-{[3-(5-amino-6-{[(3S)-piperidin-3-ylamino]carbonyl}pyrazin-2-yl)phenyl]oxy}ethyl)piperazine-1-carboxylate], the IC50 was below 0.05 µM.
In the case of `CN(C)c1ccc(NC(=O)NCc2cccc(-c3cnc(N)c(C(=O)N[C@H]4CCCNC4)n3)c2)cc1` [Example 966, 3-amino-6-(3-{[({[4-(dimethylamino)phenyl]amino}carbonyl)amino]methyl}phenyl)-N-[(3S)-piperidin-3-yl]pyrazine-2-carboxamide], the concentration for half-maximal inhibition (IC50) was below 0.05 µM.
For the molecule `Nc1ncc(-c2cccc(C(=O)N[C@H]3CCc4ccccc43)c2)nc1C(=O)NC1CCCCNC1` (stereo partly drawn) [Example 967, 3-amino-N-azepan-3-yl-6-(3-{[(1S)-2,3-dihydro-1H-inden-1-ylamino]carbonyl}phenyl)pyrazine-2-carboxamide], the IC50 was below 0.05 µM.
As for `Nc1ncc(-c2cccc(CN[C@@H]3c4ccccc4C[C@@H]3O)c2)nc1C(=O)N[C@H]1CCCNC1` [Example 968, 3-amino-6-[3-({[(1R,2S)-2-hydroxy-2,3-dihydro-1H-inden-1-yl]amino}methyl)phenyl]-N-[(3S)-piperidin-3-yl]pyrazin-2-carboxamide], the half-maximal inhibitory concentration (IC50) is below 0.05 µM.
Then `Nc1ncc(-c2cccc(C(=O)N[C@H]3c4ccccc4C[C@@H]3O)c2)nc1C(=O)N[C@H]1CCCCN(Cc2ccccc2)C1` [Example 969, 3-amino-6-[3-({[(1S,2S)-2-hydroxy-2,3-dihydro-1H-inden-1-yl]amino}carbonyl)phenyl]-N-[(3S)-1-(phenylmethyl)azepan-3-yl]pyrazine-2-carboxamide], with 1 to 10 µM; and `Nc1ncc(-c2cccc(C(=O)N[C@H]3c4ccccc4C[C@@H]3O)c2)nc1C(=O)N[C@H]1CCCCNC1` [Example 970, 3-amino-N-[(3S)-azepan-3-yl]-6-[3({[(1S,2S)-2-hydroxy-2,3-dihydro-1H-inden-1-yl]amino}carbonyl)phenyl]pyrazine-2-carboxamide], with below 0.05 µM.
Regarding `Nc1ncc(-c2cccc(CNC(=O)Nc3ccc(Cl)cc3)c2)nc1C(=O)N[C@H]1CCCNC1` [Example 971, 3-amino-6-{3-[({[(4-chlorophenyl)amino]carbonyl}amino)methyl]phenyl}-N-[(3S)-piperidin-3-yl]pyrazine-2-carboxamide], the half-inhibitory concentration (IC50) is below 0.05 µM.
In the case of `Nc1ncc(-c2cccc(C(=O)N[C@H]3CCc4ccccc43)c2)nc1C(=O)N[C@H]1CCCCN(Cc2ccccc2)C1` [Example 972, 3-amino-6-(3-{[(1S)-2,3-dihydro-1H-inden-1-ylamino]carbonyl}phenyl)-N-[(3S)-1-(phenylmethyl)azepan-3-yl]pyrazine-2-carboxamide], the 50% inhibitory concentration (IC50) was in the range of 0.05 to 1 µM.
As to `Nc1ncc(-c2cccc(C(=O)N[C@H]3CCc4ccccc43)c2)nc1C(=O)N[C@H]1CCCCNC1` [Example 973, 3-amino-N-[(3S)-azepan-3-yl]-6-(3{[(1S)-2,3-dihydro-1H-inden-1-ylamino]carbonyl}phenyl)pyrazine-2-carboxamide], the IC50 was below 0.05 µM.
`Cc1cccc(-c2cnc(N)c(C(=O)N[C@H]3CCCCNC3)n2)c1` [Example 974, 3-amino-N-[(3S)-azepan-3-yl]-6-(3-methylphenyl)pyrazine-2-carboxamide]: the 50% inhibitory concentration (IC50) is below 0.05 µM.
Then `Cc1ccccc1CC(=O)Nc1cccc(-c2cnc(N)c(C(=O)N[C@H]3CCCNC3)n2)c1` [Example 975, 3-amino-6-(3-{[(2-methylphenyl)acetyl]amino}phenyl)-N-[(3S)-piperidin-3-yl]pyrazine-2-carboxamide], with below 0.05 µM.
On to `Nc1ncc(-c2cccc(NC(=O)Cc3cccc(C(F)(F)F)c3)c2)nc1C(=O)N[C@H]1CCCNC1` [Example 976, 3-amino-N-[(3S)-piperidin-3-yl]-6-[3-({[3-(trifluoromethyl)phenyl]acetyl}amino)phenyl]pyrazine-2-carboxamide], for which the IC50 is below 0.05 µM.
Take `COc1ccc(CC(=O)Nc2cccc(-c3cnc(N)c(C(=O)N[C@H]4CCCNC4)n3)c2)cc1` [Example 977, 3-amino-6-[3-({[4-(methyloxy)phenyl]acetyl}amino)phenyl]-N-[(3S)-piperidin-3-yl]pyrazine-2-carboxamide]: the IC50 was below 0.05 µM.
The value for `Nc1ncc(-c2cccc(NC(=O)Cc3cccc(F)c3)c2)nc1C(=O)N[C@H]1CCCNC1` [Example 979, 3-amino-6-(3-{[(3-fluorophenyl)acetyl]amino}phenyl)-N-[(3S)-piperidin-3-yl]pyrazine-2-carboxamide] was below 0.05 µM.
For `Nc1ncc(-c2cccc(NC(=O)Cc3cccnc3)c2)nc1C(=O)N[C@H]1CCCNC1` [Example 980, 3-amino-N-[(3S)-piperidin-3-yl]-6-{3-[(pyridin-3-ylacetyl)amino]phenyl}pyrazine-2-carboxamide], the IC50 is below 0.05 µM.
`Nc1ncc(-c2cccc(NC(=O)c3cccnc3)c2)nc1C(=O)N[C@H]1CCCNC1` [Example 981, 3-amino-N-[(3S)-piperidin-3-yl]-6-{3-[(pyridin-3-ylcarbonyl)amino]phenyl}pyrazine-2-carboxamide]: the IC50 was below 0.05 µM.
Consider `Nc1ncc(-c2cccc(NC(=O)Cc3cc(F)ccc3F)c2)nc1C(=O)N[C@H]1CCCNC1` [Example 982, 3-amino-6-(3-{[(2,5-difluorophenyl)acetyl]amino}phenyl)-N-[(3S)-piperidin-3-yl]pyrazine-2-carboxamide], for which the IC50 is below 0.05 µM.
Regarding `Nc1ncc(-c2cccc(NC(=O)Cc3ccc(F)cc3)c2)nc1C(=O)N[C@H]1CCCNC1` [Example 983, 3-amino-6-(3-{[(4-fluorophenyl)acetyl]amino}phenyl)-N-[(3S)-piperidin-3-yl]pyrazine-2-carboxamide], the IC50 was below 0.05 µM.
`Nc1ncc(-c2cccc(C(=O)NCc3ccc(Cl)c(Cl)c3)c2)nc1C(=O)N[C@H]1CCCNC1` [Example 985, 3-amino-6-[3-({[(3,4-dichlorophenyl)methyl]amino}carbonyl)phenyl]-N-[(3S)-piperidin-3-yl]pyrazine-2-carboxamide]: the IC50 is below 0.05 µM.
Then `Nc1ncc(-c2cccc(CNC(=O)c3ccc(-c4ccc([N+](=O)[O-])cc4)o3)c2)nc1C(=O)N[C@H]1CCCNC1` [Example 986, 3-Amino-6-[3-({[5-(4-nitro-phenyl)-furan-2-carbonyl]-amino}-methyl)-phenyl]-pyrazine-2-carboxylic acid (3S)-piperidin-3-ylamide], with below 0.05 µM; and `Nc1ncc(-c2cccc(CNC(=O)c3ncccc3O)c2)nc1C(=O)N[C@H]1CCCNC1` [Example 987, 3-amino-6-[3-({[(3-hydroxypyridin-2-yl)carbonyl]amino}methyl)phenyl]-N-[(3S)-piperidin-3-yl]pyrazine-2-carboxamide], with below 0.05 µM.
Turning to `Nc1ncc(-c2cccc(CNC(=O)COc3ccc(OC(F)(F)F)cc3)c2)nc1C(=O)N[C@H]1CCCNC1` [Example 988, 3-amino-N-[(3S)-piperidin-3-yl]-6-[3-({[({4-[(trifluoromethyl)oxy]phenyl}oxy)acetyl]amino}methyl)phenyl]pyrazine-2-carboxamide], the half-maximal inhibitory concentration (IC50) was below 0.05 µM.
`Cc1cc(C(=O)NCc2cccc(-c3cnc(N)c(C(=O)N[C@H]4CCCNC4)n3)c2)no1` [Example 989, 3-amino-6-[3-({[(5-methylisoxazol-3-yl)carbonyl]amino}methyl)phenyl]-N-[(3S)-piperidin-3-yl]pyrazine-2-carboxamide]: the 50% inhibitory concentration (IC50) is below 0.05 µM.
For `Nc1ncc(-c2cccc(CNC(=O)c3ccno3)c2)nc1C(=O)N[C@H]1CCCNC1` [Example 990, 3-amino-6-(3-{[(isoxazol-5-ylcarbonyl)amino]methyl}phenyl)-N-[(3S)-piperidin-3-yl]pyrazine-2-carboxamide], the IC50 was below 0.05 µM.
With `Cc1nnsc1C(=O)NCc1cccc(-c2cnc(N)c(C(=O)N[C@H]3CCCNC3)n2)c1` [Example 991, 3-amino-6-[3-({[(4-methyl-1,2,3-thiadiazol-5-yl)carbonyl]amino}methyl)phenyl]-N-[(3S)-piperidin-3-yl]pyrazine-2-carboxamide], the IC50 is below 0.05 µM.
As to `Nc1ncc(-c2cccc(CNC(=O)c3cc(Cl)sc3Cl)c2)nc1C(=O)N[C@H]1CCCNC1` [Example 992, 3-amino-6-[3-({[(2,5-dichloro-3-thienyl)carbonyl]amino}methyl)phenyl]-N-[(3S)-piperidin-3-yl]pyrazine-2-carboxamide], the IC50 is below 0.05 µM.
Then `Cc1ccc(Cl)cc1CNC(=O)c1cccc(-c2cnc(N)c(C(=O)N[C@H]3CCCNC3)n2)c1` [Example 993, 3-amino-6-[3-({[(5-chloro-2-methylphenyl)methyl]amino}carbonyl)phenyl]-N-[(3S)-piperidin-3-yl]pyrazine-2-carboxamide], with below 0.05 µM; and `Nc1ncc(-c2cccc(C(=O)NCc3c(F)cccc3Cl)c2)nc1C(=O)N[C@H]1CCCNC1` [Example 995, 3-amino-6-[3-({[(2-chloro-6-fluorophenyl)methyl]amino}carbonyl)phenyl]-N-[(3S)-piperidin-3-yl]pyrazine-2-carboxamide], with below 0.05 µM.

Source of the values: patent publication US7704995B2 (Exelixis, Inc., priority 2003, dated 2010).
